These results are taken from PMC7747769 (AIChE journal. American Institute of Chemical Engineers, 2019).

Experiment [1] relates to DR1. It counts as binding, human.
Experiment [2] deals with DR1. The following applies: DR1 and HA306–318 peptide; cited from earlier work.

The IC50 is the concentration needed to halve the response being measured. As to DNP-PKYVKQNTLKLAT [HA306–318], in the experiment on DR1 [1], the “SDS stability of DR1 complex” value is recorded as “migrated as an SDS-stable heterodimer”. In addition, the IC50 with DR1 [2] is around 34 nM.
